Activity calls are given as the source filed them. No rule for the calls is given here.
System: CCRIS mutagenicity, Ames/micronucleus/aberration tests
Experiment: CCRIS mutagenicity studies
[1] = Test System: AMES SALMONELLA TYPHIMURIUM, Strain/Indicator: TA102, Metabolic Activation: NONE, Method: STANDARD PLATE
[2] = Test System: AMES SALMONELLA TYPHIMURIUM, Strain/Indicator: TA98, Metabolic Activation: NONE, Method: STANDARD PLATE
[3] = Test System: AMES SALMONELLA TYPHIMURIUM, Strain/Indicator: TA100, Metabolic Activation: NONE, Method: STANDARD PLATE
[4] = Test System: AMES SALMONELLA TYPHIMURIUM, Strain/Indicator: TA98, Metabolic Activation: RAT, LIVER, S-9, AROCLOR 1254, Method: STANDARD PLATE
[5] = Test System: AMES SALMONELLA TYPHIMURIUM, Strain/Indicator: TA100, Metabolic Activation: RAT, LIVER, S-9, AROCLOR 1254, Method: STANDARD PLATE
[6] = Test System: AMES SALMONELLA TYPHIMURIUM, Strain/Indicator: TA100, Metabolic Activation: NONE, Method: PREINCUBATION
[7] = Test System: AMES SALMONELLA TYPHIMURIUM, Strain/Indicator: TA1535, Metabolic Activation: NONE, Method: STANDARD PLATE
[8] = Test System: AMES SALMONELLA TYPHIMURIUM, Strain/Indicator: TA1537, Metabolic Activation: NONE, Method: STANDARD PLATE

Measured: mutagenic call

Nc1c(O)ccc2ccccc12
inactive: Test System: AMES SALMONELLA TYPHIMURIUM, Strain/Indicator: TA100, Metabolic Activation: RAT, LIVER, S-9, AROCLOR 1254, Method: PREINCUBATION inactive; negative

COC1=C(N)C(=O)c2nc(-c3nc(C(=O)O)c(C)c(-c4ccc(OC)c(OC)c4O)c3N)ccc2C1=O
active: [1] active; positive | Test System: AMES SALMONELLA TYPHIMURIUM, Strain/Indicator: TA2638, Metabolic Activation: NONE, Method: STANDARD PLATE active; positive | Test System: AMES SALMONELLA TYPHIMURIUM, Strain/Indicator: TA2638A, Metabolic Activation: NONE, Method: STANDARD PLATE active; positive | Test System: E. COLI, Strain/Indicator: WP2 (PKM101), Metabolic Activation: NONE, Method: STANDARD PLATE active; positive | Test System: E. COLI, Strain/Indicator: WP2 UVRA (PKM101), Metabolic Activation: NONE, Method: STANDARD PLATE active; positive | Test System: UDS HUMAN FIBROBLASTS, Strain/Indicator: THY INCORP (NON-S-PHASE), Metabolic Activation: NONE, Method: AUTORADIOGRAPHY active; positive

CCCCCCCOP(=S)([S-])OCCCCCCC.CCCCCCCOP(=S)([S-])OCCCCCCC.[Zn+2]
inactive: [2] inactive; negative | Test System: AMES SALMONELLA TYPHIMURIUM, Strain/Indicator: TA98, Metabolic Activation: RAT, LIVER, S-9, Method: STANDARD PLATE inactive; negative | [3] inactive; negative | Test System: AMES SALMONELLA TYPHIMURIUM, Strain/Indicator: TA100, Metabolic Activation: RAT, LIVER, S-9, Method: STANDARD PLATE inactive; negative | [1] inactive; negative | Test System: AMES SALMONELLA TYPHIMURIUM, Strain/Indicator: TA102, Metabolic Activation: RAT, LIVER, S-9, Method: STANDARD PLATE inactive; negative

CNC(=O)N(C)c1nc2ccccc2s1
inactive: [2] inactive; negative | [4] inactive; negative | [3] inactive; negative | [5] inactive; negative

N[C@@H](CSC(Cl)=C(Cl)Cl)C(=O)O
active: [6] active; positive | [3] active; positive | Test System: AMES SALMONELLA TYPHIMURIUM, Strain/Indicator: TA100, Metabolic Activation: RAT, KIDNEY, S-9, AROCLOR 1254, Method: STANDARD PLATE active; positive
inactive: Test System: AMES SALMONELLA TYPHIMURIUM, Strain/Indicator: TA2638, Metabolic Activation: NONE, Method: PREINCUBATION inactive; negative

COc1ccc([C@@H]2CC(=O)c3c(O)cc(O[C@@H]4O[C@H](CO[C@@H]5O[C@@H](C)[C@H](O)[C@@H](O)[C@H]5O)[C@@H](O)[C@H](O)[C@H]4O)cc3O2)cc1O
inactive: [2] inactive; negative | [4] inactive; negative | [3] inactive; negative | [5] inactive; negative | [7] inactive; negative | Test System: AMES SALMONELLA TYPHIMURIUM, Strain/Indicator: TA1535, Metabolic Activation: RAT, LIVER, S-9, AROCLOR 1254, Method: STANDARD PLATE inactive; negative | [8] inactive; negative | Test System: AMES SALMONELLA TYPHIMURIUM, Strain/Indicator: TA1537, Metabolic Activation: RAT, LIVER, S-9, AROCLOR 1254, Method: STANDARD PLATE inactive; negative | Test System: AMES SALMONELLA TYPHIMURIUM, Strain/Indicator: TA1538, Metabolic Activation: NONE, Method: STANDARD PLATE inactive; negative | Test System: AMES SALMONELLA TYPHIMURIUM, Strain/Indicator: TA1538, Metabolic Activation: RAT, LIVER, S-9, AROCLOR 1254, Method: STANDARD PLATE inactive; negative | Test System: E. COLI, Strain/Indicator: WP2, Metabolic Activation: NONE, Method: STANDARD PLATE inactive; negative | Test System: E. COLI, Strain/Indicator: WP2, Metabolic Activation: RAT, LIVER, S-9, AROCLOR 1254, Method: STANDARD PLATE inactive; negative

COC(=O)c1ccc([N+](=O)[O-])o1
active: [2] active; positive | [3] active; positive

Nc1snc2ccc(Cl)cc12
active: Test System: AMES SALMONELLA TYPHIMURIUM, Strain/Indicator: TA98, Metabolic Activation: S-9, Method: STANDARD PLATE active; positive | Test System: AMES SALMONELLA TYPHIMURIUM, Strain/Indicator: TA100, Metabolic Activation: S-9, Method: STANDARD PLATE active; positive | Test System: AMES SALMONELLA TYPHIMURIUM, Strain/Indicator: TA1537, Metabolic Activation: S-9, Method: STANDARD PLATE active; positive
inactive: [2] inactive; negative | [3] inactive; negative | [7] inactive; negative | Test System: AMES SALMONELLA TYPHIMURIUM, Strain/Indicator: TA1535, Metabolic Activation: S-9, Method: STANDARD PLATE inactive; negative | [8] inactive; negative

CSc1ncnc2nc[nH]c12
active: [3] active; positive

C[O+](C)C.[Cl][Sb-]([Cl])([Cl])([Cl])([Cl])[Cl]
inactive: Test System: AMES SALMONELLA TYPHIMURIUM, Strain/Indicator: TA98, Metabolic Activation: NONE, Method: PREINCUBATION inactive; negative | Test System: AMES SALMONELLA TYPHIMURIUM, Strain/Indicator: TA98, Metabolic Activation: RAT, LIVER, S-9, AROCLOR 1254 (10%), Method: PREINCUBATION inactive; negative | [6] inactive; negative | Test System: AMES SALMONELLA TYPHIMURIUM, Strain/Indicator: TA1535, Metabolic Activation: HAMSTER, LIVER, S-9, AROCLOR 1254 (10%), Method: PREINCUBATION inactive; negative | Test System: AMES SALMONELLA TYPHIMURIUM, Strain/Indicator: TA1535, Metabolic Activation: NONE, Method: PREINCUBATION inactive; negative | Test System: AMES SALMONELLA TYPHIMURIUM, Strain/Indicator: TA1535, Metabolic Activation: RAT, LIVER, S-9, AROCLOR 1254 (10%), Method: PREINCUBATION inactive; negative | Test System: AMES SALMONELLA TYPHIMURIUM, Strain/Indicator: TA1537, Metabolic Activation: HAMSTER, LIVER, S-9, AROCLOR 1254 (10%), Method: PREINCUBATION inactive; negative | Test System: AMES SALMONELLA TYPHIMURIUM, Strain/Indicator: TA1537, Metabolic Activation: NONE, Method: PREINCUBATION inactive; negative | Test System: AMES SALMONELLA TYPHIMURIUM, Strain/Indicator: TA1537, Metabolic Activation: RAT, LIVER, S-9, AROCLOR 1254 (10%), Method: PREINCUBATION inactive; negative | Test System: Mouse lymphoma, Strain/Indicator: L5178Y (tk+/tk-), Metabolic Activation: None, Method: Suspension/plate inactive; negative
active: Test System: MOUSE LYMPHOMA, Strain/Indicator: L5178Y (TK+/TK-), Metabolic Activation: RAT, LIVER, S-9, AROCLOR 1254, Method: SUSPENSION/PLATE active; positive. reevaluation of results: positive

Cc1cc(Cl)ccc1OCCCC(=O)O
inactive: Test System: AMES SALMONELLA TYPHIMURIUM, Strain/Indicator: TA97, Metabolic Activation: NONE, Method: STANDARD PLATE inactive; negative | Test System: AMES SALMONELLA TYPHIMURIUM, Strain/Indicator: TA97, Metabolic Activation: RAT, LIVER, S-9, AROCLOR 1254, Method: STANDARD PLATE inactive; negative | [2] inactive; negative | [4] inactive; negative | [3] inactive; negative | [5] inactive; negative | [1] inactive; negative | Test System: AMES SALMONELLA TYPHIMURIUM, Strain/Indicator: TA102, Metabolic Activation: RAT, LIVER, S-9, AROCLOR 1254, Method: STANDARD PLATE inactive; negative

CC(=O)CC(O)(CC(=O)O)C(=O)O (configuration not stated)
inactive: Test System: AMES SALMONELLA TYPHIMURIUM, Strain/Indicator: TA97, Metabolic Activation: NONE, Method: PREINCUBATION inactive; negative | Test System: AMES SALMONELLA TYPHIMURIUM, Strain/Indicator: TA97, Metabolic Activation: S-9, Method: PREINCUBATION inactive; negative | Test System: AMES SALMONELLA TYPHIMURIUM, Strain/Indicator: TA102, Metabolic Activation: NONE, Method: PREINCUBATION inactive; negative | Test System: AMES SALMONELLA TYPHIMURIUM, Strain/Indicator: TA102, Metabolic Activation: S-9, Method: PREINCUBATION inactive; negative
